Where two headings read alike, the source gives them in different places. Values belong to the molecule of their own block, whether it stands above or below them.
Columns and labels:
[1] = Solubility in distilled water and normal saline, visual inspection and HPLC; assay type: physicochemical; conditions: for Aqueous solubility checked on HPLC: aqueous solution, analogs compared with MFA; for Aqueous solubility on visual inspection: analogs compared with parent MFA
Text: The solubility of each molecular structure was checked in distilled water as well as in normal saline.

[2] = system: pilocarpine-induced seizure rats; experiment: BBB permeability by contrast-enhanced MRI (Gd-DTPA) in rat seizure pre-clinical model; assay type: in vivo
Protocol: Structure (I), MFA-NIC, was assessed as a possible therapeutic in a rat seizure pre-clinical model. Assessments were conducted using Contrast-enhanced (CE) magnetic resonance (MR) imaging (MRI) and MR spectroscopy (MRS). The seizure model initially involved injection of pilocarpine (380 mg/kg i.p.) alone (Ikonomidou-Turski et al., 1988), however all rats undergoing this procedure died before MRS data could be obtained. A more recent model by Jeong et al. (2017) was adopted, where a lower dose of pilocarpine (25 mg/kg i.p.) was preceded by lithium chloride (127 mg/kg i.p.) 19 hours before, and scopolamine (2 mg/kg i.p.) 30 min. before, pilocarpine. Injection of pilocarpine induced status epilepticus about 20-30 min post-pilocarpine (Jeong et al., 2017). Pascente et al. (2016) also used lithium chloride 18 hours before pilocarpine. Scopolamine was also used by Behr et al. (2017) 30 m in before pilocarpine. Electroencephalography (EEG) was used in the Behr et al. study to confirm seizures.
A MRI contrast agent, Gd-DTPA (gadolinium diethylene triamine penta acetic acid) was used to establish if there was increased BBB permeability. […] Three brain regions were assessed: hippocampus, thalamus and cerebral cortex. […] This may be due to the variability in the change in MRI signal intensity in the seizure group, and the low number of rats per group. The smaller variability in the saline-treated controls was due to the large […] of n=25 (obtained from a previous study conducted in the Towner group). […] The saline-treated controls were used for all statistical comparisons.

[3] = pH 7.1; cited from earlier work
[4] = Stability study of MFA analogs in acetonitrile and distilled water, 1 day and 7 days, visual and HPLC; assay type: physicochemical; conditions: for Stability in acetonitrile and in distilled water up to 7 days: 4° C. and room temperature (~25° C.); for Stability 1 Day ACN 4° C. / Stability 7 Day ACN 4° C. / Stability 1 Day ACN RT / Stability 7 Day ACN RT: acetonitrile; for Stability 7 Day ACN 4° C. / Stability 7 Day ACN RT / Stability 7 Day DW 4° C. / Stability 7 Day DW RT: 7 days; for Stability 1 Day ACN RT / Stability 7 Day ACN RT / Stability 1 Day DW RT / Stability 7 Day DW RT: room temperature (~25° C.); for Stability 1 Day DW 4° C. / Stability 7 Day DW 4° C. / Stability 1 Day DW RT / Stability 7 Day DW RT: distilled water; for Stability in acetonitrile / Stability in distilled water after 1 day: after 1 day
Text: Therapeutic agents stable after 1 day were subjected to a 7 day stability study.
FIG. 1 provides the HPLC chromatogram of MFA-NIC showing stability of the modified drug kept at room temperature on day seven. FIG. 2 provides the HPLC chromatogram of MFA-MeNIC showing stability of the modified drug kept at room temperature on day seven.

[5] = system: pilocarpine-induced seizure rats; experiment: Brain metabolite levels by MR spectroscopy (ratios to Cho) in rat seizure pre-clinical model; assay type: in vivo
Protocol: Assessments were conducted using Contrast-enhanced (CE) magnetic resonance (MR) imaging (MRI) and MR spectroscopy (MRS). […] A more recent model by Jeong et al. (2017) was adopted, where a lower dose of pilocarpine (25 mg/kg i.p.) was preceded by lithium chloride (127 mg/kg i.p.) 19 hours before, and scopolamine (2 mg/kg i.p.) 30 min. before, pilocarpine. Injection of pilocarpine induced status epilepticus about 20-30 min post-pilocarpine (Jeong et al., 2017).
MRS was used to assess levels of brain metabolites, including N-acetyl aspartate (NAA), total creatine (Cr, total choline (Cho), taurine (Tau), glutamate (Glu) and myo-inositol (Myo-Ins). Cho was used as a normalization reference for all other metabolites. For the control group a total of 10 rats were assessed. For all other treatment groups n=5.

[6] = system: pilocarpine-induced seizure rats; experiment: EEG of seizure episodes in rat seizure model; assay type: in vivo; conditions: preliminary data
[7] = cerebral cortex, 50 mg/kg via gavage
[8] = cerebral cortex, 200 mg/kg via gavage
[9] = distilled water, water, solvent DW (distilled water), read-out: Solubility after molecular weight correction factor
[10] = distilled water, water, solvent DW (distilled water), read-out: Solubility in NS and DW
[11] = normal saline, saline or isotonic, solvent NS (normal saline), read-out: Solubility after molecular weight correction factor
[12] = normal saline, saline or isotonic, solvent NS (normal saline), read-out: Solubility in NS and DW
[13] = 200 mg/kg dose, found most effective
[14] = central brain region (primarily hippocampus), 10 mg/kg via gavage

Aqueous solubility checked on HPLC [1]: No peak
Area (HPLC) ([1]; solvent DW (distilled water)): No Peak
Area (HPLC) ([1]; solvent NS (normal saline)): No Peak
Aqueous solubility on visual inspection ([1]; water): insoluble
Structure (SMILES): Cc1cccc(Nc2ccccc2C(=O)O)c1C [MFA, N-(2,3-Dimethylphenyl)anthranilic acid, reference compound]
BBB permeability vs saline-treated controls [2, 7]: significant increase
BBB permeability vs saline-treated controls [2, 8]: significant increase
BBB permeability vs saline-treated controls ([2]; hippocampus, 50 mg/kg via gavage): significant increase
BBB permeability vs saline-treated controls ([2]; thalamus, 50 mg/kg via gavage): significant increase
BBB permeability vs saline-treated controls ([2]; thalamus, 200 mg/kg via gavage): significant increase
Water solubility [3]: 0.004%

Structure (SMILES): Cc1cccc(Nc2ccccc2C(=O)OC[n+]2cccc(C(=O)N(C)C)c2)c1C [MFA-2MeNIC, MFA- N,N-Dimethylnicotinamide N-Methylnicotinamide]
Stability in acetonitrile and in distilled water up to 7 days [4]: stable
Stability 1 Day ACN 4° C. [4]: Stable
Stability 7 Day ACN 4° C. [4]: Stable
Stability 1 Day ACN RT [4]: Stable
Stability 7 Day ACN RT [4]: Stable
Stability 1 Day DW 4° C. [4]: Stable
Stability 7 Day DW 4° C. [4]: Stable
Stability 1 Day DW RT [4]: Stable
Stability 7 Day DW RT [4]: Stable
Aqueous solubility checked on HPLC [1]: much higher
solubility [1, 9]: 180 µg/mL
solubility [1, 10]: 390 µg/mL
solubility [1, 11]: 330 µg/mL
solubility [1, 12]: 720 µg/mL
Area (HPLC) ([1]; solvent DW (distilled water)): 9876828
Area (HPLC) ([1]; solvent NS (normal saline)): 18274457
Aqueous solubility on visual inspection ([1]; water): significantly higher

Structure (SMILES): CNC(=O)c1ccc[n+](COC(=O)c2ccccc2Nc2cccc(C)c2C)c1 [MFA-MeNIC, MFA- N-Methylnicotinamide]
Stability in acetonitrile and in distilled water up to 7 days [4]: stable
Stability 1 Day ACN 4° C. [4]: Stable
Stability 7 Day ACN 4° C. [4]: Stable
Stability 1 Day ACN RT [4]: Stable
Stability 7 Day ACN RT [4]: Stable
Stability 1 Day DW 4° C. [4]: Stable
Stability 7 Day DW 4° C. [4]: Stable
Stability 1 Day DW RT [4]: Stable
Stability 7 Day DW RT [4]: Stable
Aqueous solubility checked on HPLC [1]: much higher
solubility [1, 9]: 200 µg/mL
solubility [1, 10]: 460 µg/mL
solubility [1, 11]: 270 µg/mL
solubility [1, 12]: 600 µg/mL
Area (HPLC) ([1]; solvent DW (distilled water)): 10643970
Area (HPLC) ([1]; solvent NS (normal saline)): 13844823
Aqueous solubility on visual inspection ([1]; water): significantly higher

Stability 1 Day ACN 4° C. [4]: Stable
Stability 1 Day ACN RT [4]: Stable
Stability in acetonitrile [4]: stable
Stability in distilled water after 1 day [4]: unstable
Structure (SMILES): Cc1cccc(Nc2ccccc2C(=O)OCOC(=O)c2ccc[n+](C)c2)c1C [MFA-MeNICA, MFA-N-methylnicotinic acid]

Structure (SMILES): Cc1cccc(Nc2ccccc2C(=O)OC[n+]2cccc(C(N)=O)c2)c1C [MFA-NIC, MFA-Nicotinamide]
Stability in acetonitrile and in distilled water up to 7 days [4]: stable
Stability 1 Day ACN 4° C. [4]: Stable
Stability 7 Day ACN 4° C. [4]: Stable
Stability 1 Day ACN RT [4]: Stable
Stability 7 Day ACN RT [4]: Stable
Stability 1 Day DW 4° C. [4]: Stable
Stability 7 Day DW 4° C. [4]: Stable
Stability 1 Day DW RT [4]: Stable
Stability 7 Day DW RT [4]: Stable
Aqueous solubility checked on HPLC [1]: much higher
solubility [1, 9]: 130 µg/mL
solubility [1, 10]: 280 µg/mL
solubility [1, 11]: 40 µg/mL
solubility [1, 12]: 100 µg/mL
Area (HPLC) ([1]; solvent DW (distilled water)): 6867539
Area (HPLC) ([1]; solvent NS (normal saline)): 2350506
Aqueous solubility on visual inspection ([1]; water): significantly higher
BBB permeability, overall effect [2, 13]: effective in preventing an increase in BBB permeability
BBB permeability vs saline-treated controls ([2]; cerebral cortex, 10 mg/kg via gavage): not significantly different
BBB permeability vs saline-treated controls [2, 7]: significant increase
BBB permeability vs saline-treated controls [2, 8]: not significantly different
BBB permeability vs saline-treated controls ([2]; hippocampus, all doses (10, 50 or 200 mg/kg via gavage)): None of the MFA-NIC (shown in FIGS. 4-11 as pro-MFA or pMFA)-treated rats were found to be significantly different
BBB permeability vs saline-treated controls ([2]; thalamus, all doses (10, 50 or 200 mg/kg via gavage)): None of the MFA-NIC (pro-MFA or pMFA)-treated rats were found to be significantly different
Brain metabolite levels, overall effect [5, 13]: effective in restoring brain metabolite levels back to normal
Myo-Ins/Cho ratio vs control (non-treated, non-seizure) group [5, 14]: significant decrease
NAA/Cho ratio vs control (non-treated, non-seizure) group [5, 14]: significant decrease
Level of seizure episodes (EEG) [6]: does reduce the level of seizure episodes

Stability in acetonitrile [4]: not found to be stable
Stability in distilled water after 1 day [4]: not found to be stable
Structure (SMILES): Cc1cccc(Nc2ccccc2C(=O)OCOC(=O)c2ccc[n+](COC(=O)NC(C)C)c2)c1C [MFA-PCA, MFA-Pyridinium, 3-carboxy-1-[N-(1-methylethyl)carbamic acid]]

From patent US20200109117A1, “Modified Therapeutic Agent Analogs of Mefenamic Acid” (ACCESS Association, priority 2018, published 2020)
